Experiments:
[1] = system: Desoxycorticosterone Hypertensive Rats; experiment: Cardiovascular activity (blood pressure and heart rate) in desoxycorticosterone hypertensive rats; format: in vivo, male Charles River rats
[2] = Acute toxicity determination in mice (ALD50, ip); format: in vivo, female Swiss-Webster mice; conditions: in vivo, mouse, ip, 24 hours after administration
Description: (§1) Biological Methods--Acute toxicity determinations were performed in female Swiss-Webster mice, 15-24 g. Compounds were administered in aqueous solutions or as suspensions in 1% tragacanth by the intraperitoneal route to groups of three or more mice.

[3] = system: Desoxycorticosterone Hypertensive Rats; experiment: Cardiovascular activity (blood pressure and heart rate) in desoxycorticosterone hypertensive rats; format: in vivo, male Charles River rats; conditions: 24 hr
Description: The indirect measurements of blood pressure and heart rate were determined in male Charles River rats made hypertensive (systolic blood pressure >159 mm Hg) by subcutaneously implanting a wax-formulated pellet containing 10 mg of desoxycorticosterone acetate. Systolic blood pressure was measured in the caudal arteries of prewarmed (40° C.), unanesthetized, restrained animals by a pneumatic pulse transducer placed distal to an automated tail pressure cuff and was recorded on a physiograph. Heart rate was determined from the amplified pulse waves recorded during the blood pressure measurements. Prior to the actual experiments, animals were accustomed to the measurement handling procedure several times during the preceding weeks.
Control systolic blood pressure and heart rates were determined in a group of usually six hypertensive rats on each day. A compound for evaluation was administered by intraperitoneal injection either in solution or as a suspension at 24 hr. intervals following injection. Mean values of the group for these parameters at a particular measurement period were calculated, and then the mean difference from control, along with its associated standard error, was calculated for each period. The statistical significance of the changes produced by a compound was tested by an analysis of variance and the Newman-Keuls a posteriori test when F was significant. A probability level of 0.05 or less was accepted as a significant change.
All compounds synthesized in this series, except V, were tested at a dosage level of 100 mg/kg. […] Another group of hypertensive rats was injected with 0.9% NaCl in a dose of 1 ml/kg. The latter group was included as a placebo group for the entire study.

animals = experiment: Anti-hypertensive effect when administered to animals parenterally or orally; format: in vivo; conditions: in words
Mice = experiment: Acute toxicity determination in mice (ALD50, ip); format: in vivo, female Swiss-Webster mice; conditions: in words, compared with the other compounds of the series
Description: as §1

[4] = 100 mg/kg ip, suspension in 1% tragacanth, 1 hr
[5] = 100 mg/kg ip, suspension in 1% tragacanth, 2 hr
[6] = 100 mg/kg ip, suspension in 1% tragacanth, 4 hr
[7] = 100 mg/kg ip, suspension in 1% tragacanth
[8] = 50 mg/kg ip, suspension in 1% tragacanth, 1 hr
[9] = 50 mg/kg ip, suspension in 1% tragacanth, 2 hr
[10] = 50 mg/kg ip, suspension in 1% tragacanth, 4 hr
[11] = 50 mg/kg ip, suspension in 1% tragacanth, 24 hr
[12] = 10 mg/kg ip, solution in distilled water, 1 hr
[13] = 10 mg/kg ip, solution in distilled water, 2 hr
[14] = 10 mg/kg ip, solution in distilled water, 4 hr
[15] = 10 mg/kg ip, solution in distilled water, 24 hr
[16] = 25 mg/kg ip, solution in distilled water, 4 hr

| SMILES | Mean change in heart rate from control ± SE [1, 4] | Mean change in systolic blood pressure from control ± SE [1, 4] | Mean change in heart rate from control ± SE [1, 5] | Mean change in systolic blood pressure from control ± SE [1, 5] | Mean change in heart rate from control ± SE [1, 6] | Mean change in systolic blood pressure from control ± SE [1, 6] | LD50 at 24 h ([2]; suspension in 1% tragacanth) | Mean change in heart rate from control ± SE [3, 7] | Mean change in systolic blood pressure from control ± SE [3, 7] | further results |
| --- | --- | --- | --- | --- | --- | --- | --- | --- | --- | --- |
| Cc1cc2c(cc1CCNC(=O)Cc1ccccc1)CCC2 [VI] | +17 ± 17 beats per minute | -7 ± 7 mm Hg | +24 ± 11 beats per minute | -2 ± 6 mm Hg | +23 ± 13 beats per minute | -1 ± 7 mm Hg | > 1000 mg/kg | +2 ± 17 beats per minute | -3 ± 10 mm Hg |  |
| COc1cc2c(cc1CCNC(=O)c1ccccc1)CCC2 [I, 5-Benzoylaminoethyl-6-methoxyindan] | -20 ± 23 beats per minute | -18 ± 8 mm Hg | +9 ± 30 beats per minute | -24 ± 7 mm Hg | -14 ± 18 beats per minute | -12 ± 6 mm Hg | > 1000 mg/kg | -67 ± 22 beats per minute | -13 ± 4 mm Hg |  |
| COc1ccc(CNCCc2cc3c(cc2C)CCC3)cc1OC.Cl [VIII, N-(3,4-Dimethoxybenzyl)-5-aminoethyl-6-methylindan hydrochloride] | -55 ± 17 beats per minute | -58 ± 4 mm Hg | 0 ± 14 beats per minute | -60 ± 7 mm Hg | +4 ± 8 beats per minute | -47 ± 2 mm Hg | 140 to 178 mg/kg | -14 ± 10 beats per minute | -17 ± 2 mm Hg |  |
| COc1cc2c(cc1CCNC(=O)Cc1ccc(OC)c(OC)c1)CCC2 [IV, 5-(3,4-Dimethoxyphenylacetyl)aminoethyl-6-methoxyindan] | +23 ± 29 beats per minute | -10 ± 4 mm Hg | +57 ± 31 beats per minute | -10 ± 2 mm Hg | +14 ± 12 beats per minute | -19 ± 3 mm Hg | 500 to 1000 mg/kg | -27 ± 2 beats per minute | -19 ± 4 mm Hg |  |
| C[C@](N)(Cc1ccc(O)c(O)c1)C(=O)O [Methyldopa, reference compound] |  |  |  |  |  |  |  |  |  | Mean change in heart rate from control ± SE [1, 8]: +106 ± 26 beats per minute; Mean change in systolic blood pressure from control ± SE [1, 8]: -31 ± 4 mm Hg; Mean change in heart rate from control ± SE [1, 9]: +104 ± 28 beats per minute; Mean change in systolic blood pressure from control ± SE [1, 9]: -50 ±4 mm Hg; Mean change in heart rate from control ± SE [1, 10]: +31 ± 39 beats per minute; Mean change in systolic blood pressure from control ± SE [1, 10]: -48 ± 6 mm Hg; Mean change in heart rate from control ± SE [1, 11]: -19 ± 12 beats per minute; Mean change in systolic blood pressure from control ± SE [1, 11]: -16 ± 5 mm Hg; change in mean systolic blood pressure from control levels ([1]; in words, hypertensive rats, reference standards): significant depressions in mean systolic blood pressure from control levels |
| COc1ccc(CC(=O)NCCc2cc3c(cc2C)CCC3)cc1OC [VII, N-(3,4-Dimethoxyphenylacetyl)-5-aminoethyl-6-methylindan] | +43 ± 10 beats per minute | -2 ± 6 mm Hg | +47 ± 12 beats per minute | -4 ± 9 mm Hg | +37 ± 15 beats per minute | +2 ± 5 mm Hg | > 1000 mg/kg | +22 ± 12 beats per minute | -3 ± 7 mm Hg |  |
| Cc1cc2c(cc1CCN)CCC2 [5-aminoethyl-6-methylindan] |  |  |  |  |  |  |  |  |  | hypotensive properties (animals): has hypotensive properties; anti-hypertensive effect (animals; as base or acid addition salt, animals, parenterally or orally): exert an anti-hypertensive effect |
| Cc1cc2c(cc1CCN)CCC2.Cl [Compound V, 5-Aminoethyl-6-methylindan HCl] |  |  |  |  |  |  |  |  |  | Mean change in heart rate from control ± SE [1, 12]: +32 ± 17 beats per minute; Mean change in systolic blood pressure from control ± SE [1, 12]: -24 ± 8 mm Hg; Mean change in heart rate from control ± SE [1, 13]: +34 ± 14 beats per minute; Mean change in systolic blood pressure from control ± SE [1, 13]: -24 ± 4 mm Hg; Mean change in heart rate from control ± SE [1, 14]: +25 ± 11 beats per minute; Mean change in systolic blood pressure from control ± SE [1, 14]: -15 ± 5 mm Hg; Mean change in heart rate from control ± SE [1, 15]: -4 ± 11 beats per minute; Mean change in systolic blood pressure from control ± SE [1, 15]: -6 ± 4 mm Hg; Mean change in heart rate from control ± SE [1, 16]: +20 ± 21 beats per minute; Mean change in systolic blood pressure from control ± SE [1, 16]: -18 ± 4 mm Hg; Mean change in systolic blood pressure from control ± SE ([1]; 25 mg/kg ip, solution in distilled water, 24 hr): -11 ± 2 mm Hg; LD50 at 24 h ([2]; solution in distilled water): 79 to 89 mg/kg; relative toxicity in the mouse (Mice): relatively more toxic in the mouse; Mean change in heart rate from control ± SE ([3]; 25 mg/kg ip, solution in distilled water): -26 ± 14 beats per minute |
| COc1cc2c(cc1CCNC(=O)c1cc(OC)c(OC)c(OC)c1)CCC2 [II, 5-(3,4,5-Trimethoxybenzoyl)aminoethyl-6-methoxyindan] | +23 ± 28 beats per minute | -27 ± 8 mm Hg | +10 ± 28 beats per minute | -35 ± 13 mm Hg | +47 ± 29 beats per minute | -12 ± 8 mm Hg | > 1000 mg/kg | -4 ± 10 beats per minute | -16 ± 4 mm Hg |  |
| COc1cc2c(cc1CCNC(=O)Cc1ccccc1)CCC2 [III, 5-Phenylacetylaminoethyl-6-methoxyindan] | +13 ± 12 beats per minute | -32 ± 7 mm Hg | +54 ± 25 beats per minute | -24 ± 5 mm Hg | +19 ± 21 beats per minute | -21 ± 4 mm Hg | 1000 to 1500 mg/kg | +61 ± 12 beats per minute | -13 ± 4 mm Hg |  |
